Measured values from a melting point compilation (Tetko et al.; mined from patent text by program, amines drawn as free bases though some values may be those of a salt).

Row | SMILES | melting point [°C]
1 | CCC1(C)CC(NC(=O)c2ccccc2)C(C)C(C)(CC)N1Cc1ccccc1 (configuration not stated) | 173 to 176
2 | Nc1ccc(NC(=O)CN2CCCCC2)cc1 | 106 to 107
3 | Cc1cc2c(cc1Sc1ccc(C(=O)O)c(O)c1)C(C)(C)CCC2(C)C | 74 to 75
4 | Nc1nc(Cl)cc(NCC2CC2(Cl)Cl)n1 (configuration not stated) | 78 to 79
5 | N#CC(CCc1ccc(Cl)cc1)(c1ccccc1)c1cccnc1 (configuration not stated) | 83 to 84
6 | CCS(=O)(=O)N(c1cc([N+](=O)[O-])c(F)cc1Br)S(=O)(=O)CC | 144 to 146
7 | CC(=O)Nc1cc(NC(C)=O)cc([N+](=O)[O-])c1 | > 290
8 | O=C(/C=C/c1ccccc1)N1CCCC1 | 100
9 | O=C(CN1CSCC1=O)N1CCC(c2c[nH]c3ccccc23)CC1 | 174 to 175
10 | O=C1COc2ccc(C#Cc3ccccn3)cc2N1 | 210
11 | O=C(Nc1ccccc1)ONC1=Nc2ccc(Br)cc2C(c2ccccn2)=NC1 | 190 to 192
12 | CN(C)C(=O)CC(=O)c1ccc(C(=O)CC(=O)C(C)(C)C)cc1 | 159 to 160
13 | COC(=O)NC12CC=CCC1CSc1ccccc12 (configuration not stated) | 150 to 152
14 | CN1CCN(c2ccc(O)c3c2C[C@H](N)CC3)CC1 | 238 to 239
15 | O=C1OC2(CCC(N3CCN(c4ccc(F)cc4)CC3)CC2)c2cc(F)ccc21 (configuration not stated) | > 250
16 | CN(Cc1cccc2c1CN(C1CCC(=O)NC1=O)C2=O)C(=O)Nc1ccccc1 (configuration not stated) | 186 to 188
17 | O=C(O)c1cn(C2CC2)c2c(F)c(N3CC(C(=O)O)C3)c(F)cc2c1=O | 251 to 255
18 | Cc1cnc(N2CCC(c3ccc([N+](=O)[O-])cc3)CC2)n1C | 178 to 179
19 | N#CC(C#N)C(=O)c1ccoc1 | 98 to 99
20 | COc1ccc(Oc2ccc(C(=O)C(=O)c3ccc(Oc4ccc(OC)cc4)cc3)cc2)cc1 | 121 to 122
21 | Fc1ccc(C2=CCC3(CC2)OCCO3)cc1 | 84 to 85
22 | COC(=O)c1cc2c(cc1O)CCCC2 | 41 to 42

Row | SMILES | melting point [°C]
23 | COc1ccc(C(=O)Nc2ccc(N3CCC(NC[C@H](O)COc4ccc(O)cc4)CC3)cc2)cc1OC | 77 to 84
24 | O=C1CC(c2cccs2)=Nc2ccc(-c3ccc(=O)[nH]c3)cc2N1 | > 250
25 | CCCCCCCCC(=O)COS(=O)(=O)c1c(C)c(C)cc(C)c1C | 36 to 37.5
26 | CCCCc1ccc(C(=O)NCCN(C(C)=O)[C@@H](CCC(N)=O)C(=O)O)nc1 | 156 to 158
27 | Cc1ccnc(NC(N)=S)c1 | 210 to 212
28 | Nc1ccc(C(O)C(CO)N2CCC(Cc3ccccc3)CC2)cc1 (configuration not stated) | 62 to 68
29 | COC(=O)CCCOc1cc([N+](=O)[O-])c(CBr)cc1OC | 68 to 70
30 | CCCc1c(OCCOCCOc2ccc3ccc(OCC(=O)O)cc3c2C(C)=O)ccc(C(C)=O)c1O | 121 to 122
31 | COC(=O)c1cc(OP(=O)(OC)OC)c(C(=O)OC)s1 | 60
32 | O=C(O)CCCCCOc1ccc([N+](=O)[O-])cc1 | 104 to 107
33 | O=C(c1ccccc1)c1ccc(O)c(O)c1[N+](=O)[O-] | 153 to 155
34 | COC1(c2ccc(Sc3ccc4c(c3)CCC(=O)N4C)s2)CCOCC1 | 84 to 86
35 | O=C(CN1CCC(Cc2ccccc2)CC1)Nc1ccc2c(c1)OCC(=O)N2 | 184 to 188
36 | Cc1cccc(NP(N)(N)=O)c1 | 159 to 162
37 | O=C(O)c1cnc2oc(C(=O)O)cc2c1 | > 315
38 | O=C(Nc1ccc(Oc2ccnc(N3CCCC(O)C3)n2)c2ccccc12)c1cc(F)cc(N2CCOCC2)c1 (configuration not stated) | 180 to 181
39 | CC(C)NC(=O)OCC(=O)c1ccc(-c2ccccc2)cc1 | 133 to 134
40 | CC(C)c1[nH]c(Cl)c(C#N)c1SC#N | 159
41 | COC1(C=Cc2ccc(C=O)cc2)OOCCOO1 | 95 to 97
42 | CC12CCC3C(CC=C4C=C(OCc5ccccc5)CCC43C)C1CCC2=O (configuration not stated) | 172 to 178
43 | CC(C)(C)OC(=O)Cn1ncc2c1CCN(C(=O)OC(C)(C)C)C2 | 126 to 127

Next, values leading:

Row | melting point [°C] | SMILES
44 | 174 to 175 | Oc1ccc2ccc(C(O)C(F)(F)F)cc2c1 (configuration not stated)
45 | 308 | O=C(Nc1ccc2ccc(Cl)nc2n1)c1cnccn1
46 | 153 to 154 | CCCCCC(c1ccc(OC)cc1OC)C(C(N)=O)c1cc(C(=O)O)ccc1C(C)(C)C (configuration not stated)
47 | 189 to 191 | COc1cc2c(cc1Nc1ncc(Cl)c(Nc3ccc(N4CCOCC4)cc3OC)n1)CCN(CC(=O)N1CCOCC1)CC2
48 | 118 to 119 | CC(C)Cn1c(-c2c(F)cccc2F)c(Cl)nc(-n2cccn2)c1=O
49 | > 300 | O=c1c2ccc(Cl)cc2[nH]c2c(O)nn(Cc3cc4ccccc4s3)c(=O)c12
50 | 137 to 139 | CCOc1nc(-c2ccc(F)cc2C)c2ccc(=O)n(-c3ccccc3F)c2n1
51 | 117 to 118 | COc1nc(C(F)F)cnc1NS(=O)(=O)c1cccc(Cl)c1Cl
52 | 132 to 133 | O=[N+]([O-])c1ccc(F)c2ncccc12
53 | 52 to 54 | COCOc1ccc2cc(C=O)ccc2c1
54 | 180 to 183 | COc1ccc(C(=O)Nc2ccc(F)c(F)c2)cc1NC(=S)Nc1cc(Cl)cc(Cl)c1
55 | 84 to 85 | COc1ccc(C(=O)c2c(Cc3ccccc3)oc3ccccc23)cc1
56 | 183 to 184 | CC(C)CC(=O)Nc1c(C(=O)c2cc(Cl)ccn2)[nH]c2cc(Cl)ccc12
57 | 145 to 150 | Cc1nc2c(C(=O)NC(C)(C(N)=O)C(C)C)c(C(=O)O)ccc2n1Cc1ccccc1 (configuration not stated)
58 | 159 to 162 | CS(=O)(=O)Nc1ncc(SCc2ccccc2)s1
59 | 75 to 76 | COc1cc(C)nc(Nc2ccccc2)n1
60 | 235 to 240 | CC1=N/C(=C\c2c[nH]c3ncccc23)C(=O)N1CCN1CCOCC1
61 | 210 | O=C(O)C#Cc1ccc(-c2ccc(Cl)cc2)cn1
62 | 103 to 105 | CC(C)Cc1c[nH]c(-c2ccnc(NC(=O)c3ccccc3)c2)n1
63 | 110 to 111 | CCc1cccc(CC(=O)O)c1OCCn1cc(C(=O)NCc2ccc(C(F)(F)F)cc2)c(OC(C)C)n1

Row | melting point [°C] | SMILES
64 | 168 | CC(CCCOc1ccc(C2=C(c3ccccc3)CCCc3cc(O)ccc32)cc1)S(=O)(=O)Cc1ccco1 (configuration not stated)
65 | 163 to 166 | CCC(O)(CC(=O)OC)c1cc2n(c(=O)c1COC)Cc1cc3ccccc3nc1-2 (configuration not stated)
66 | 196 to 197 | CCOC(=O)c1ccc(Cn2c(C)nc3ccc(C(=O)NS(=O)(=O)c4ccccc4)nc32)c(Cl)c1
67 | 81 to 82 | C#CCN(C(=O)OC(C)(C)C)c1cn(-c2cncc(F)c2)nc1C
68 | 167 to 168 | Fc1ccc2c(CN3CCN(c4ccc(Cl)cc4)CC3)n[nH]c2c1F
69 | 179 to 180 | CCNC(=O)c1c(Cl)ccc(N(C)C)c1[Si](C)(C)C
70 | 123 to 124 | COC(=O)C(O)CCN1C(=O)c2ccccc2C1=O (configuration not stated)
71 | 200 to 201 | CC1(C)CCC(C)(C)c2cc(NC(=O)c3ccc(C(=O)O)nc3)ccc21
72 | 143 to 144 | C#CCn1c(-c2cc(Cl)nc(Cl)c2)nc(C)c(CC)c1=O
73 | 120 to 121 | COC1=C(OC)C(=O)c2c(Cl)cccc2C1=O
74 | 155 to 156 | CC(=O)OCc1cccc(C(C)C)c1NC(=O)CC1c2ccccc2Oc2ccccc21
75 | 135 to 136 | Cc1nc(-c2ccc3c(c2)CCCC3)c(CCC(=O)O)o1
76 | 241 to 242 | CCOc1ccc(CC(=O)Nc2ccc(S(=O)(=O)Nc3ccccc3C(=O)O)cc2)cc1
77 | 184 to 186 | CN1Cc2ccccc2C(=O)c2cc(CC(=O)O)cc([N+](=O)[O-])c21
78 | 45 to 48 | CN1C(=O)CC[C@]2(C)c3ccc(-c4ccc(Cl)cc4Cl)cc3CC[C@@H]12
79 | 133 to 134 | CC(C(=O)O)c1cccc2c1Oc1ccccc1CC2 (configuration not stated)
80 | 117 to 119 | COc1ccc(COC(=O)CC(=O)Oc2ccc(-c3cn4c(n3)sc3ccccc34)cc2)cc1
81 | 52 to 54 | OCc1cccc(Nc2nc(Oc3ccccc3)nc(Oc3ccccc3Cl)n2)c1
82 | 261 to 262 | Oc1cc2ccccc2nc1O
83 | 133 | FC(F)(F)c1cccc(N=C=S)c1

Row | melting point [°C] | SMILES
84 | > 300 | O=c1ccc2c(-c3cccc([N+](=O)[O-])c3)nccc2[nH]1
85 | 185 to 187 | COc1ccnc(CSc2nc3cc4c(cc3[nH]2)OC(F)(F)O4)c1OC
86 | 210 to 213 | Cc1ccc(-c2ccc(C(=O)Nc3ccc4cc(CN5CCCC5)cnc4c3F)cc2)cc1
87 | 168 to 170 | Cn1nc(-c2ccncc2)nc1-c1ccncc1
88 | 159 to 162 | CC(C)(C)NC(=O)c1nn(-c2ccc(Cl)cc2)c2c1[C@@H]1CC[C@H]2C1
89 | 158 to 160 | COc1cc2c3c(c1)c(Cl)c(C(=O)N1CCc4ccccc41)c(=O)n3CCO2
90 | 141 to 142 | Cc1nc(-c2ccccc2)cc(-c2cccc([N+](=O)[O-])c2)c1C(=O)NCCN1CCOCC1
91 | 229 to 230 | C[C@@H]1CCC[C@H](C)N1Cc1ccc2cc(NC(=O)c3ccc(-c4ccc(Cl)cc4)nc3)ccc2c1
92 | 193 to 195 | O=C1CCC(N2C(=O)c3cccc(CNC(=O)Nc4cccc(Cl)c4)c3C2=O)C(=O)N1 (configuration not stated)
93 | 217 to 218 | COc1ccc(OC)c(CC(=O)CN2N=C(c3ccc(Cl)cc3)c3ccccc3-n3c(C)nnc32)c1
94 | 75 to 77 | CC(=O)Oc1c(C)sc2ccccc12
95 | 270 | Cc1cnc2[nH]c3ccccc3c2c1
96 | 269 to 273 | COc1ccc2c(c1)c1c(n2C(=O)c2ccc(Cl)cc2)CCC(C(=O)O)C1 (configuration not stated)
97 | 151 to 153 | Oc1cccc(OCc2ccc3ccccc3n2)c1
98 | 80 to 82 | CCCCCCCCCCCCC1=C(Cl)C(=O)c2ccccc2C1=O
99 | 98 to 100 | Nc1cccc(Oc2cccc3cccnc23)c1
100 | > 275 | Cc1ccc(-n2c(-c3sc(Nc4ccc(Cl)cc4)nc3C)nc3ccccc3c2=O)cc1
101 | 260 to 265 | O=c1c2ccccc2sc2c(O)ccc(Cl)c12
102 | > 300 | O=C1Nc2c(F)cc(F)cc2C1c1ncnc2c1cnn2C1CCCC1 (configuration not stated)
